Experiments:
Type in all cases: cell-based
CD163 [1] = experiment: In vitro mRNA expression of CD163 (transactivation parameter) in unstimulated human PBMC cultures; conditions: for Transactivation vs. Prednisolone CD163: mRNA, PBMC cultures, GR-ligand/prednisolone quotient
Description: (§1) Regarding the definition of suitable parameters, the regulation, mediated by standard glucocorticoids and selective GR ligands, of more than 50 genes in primary human immune cells was examined in a broad screening approach. Selected genes were further characterized in vitro and in vivo in kinetic experiments. […] Decisive criteria for the parameter selection were 1) the consistent reflection of transactivation or transrepression properties of GR ligands, 2) the detection of the regulation in non-stimulated immune cells, and 3) the quick reaction of the gene expression in in vitro assays (the 4-hour time period was used for the screening), and the good and enduring detectability after in vivo application of GR ligands. These properties make it likely that a direct regulation of the gene expression by the GR ligands will take place and that the parameters will be usable in in vivo studies (e.g., as biomarkers).
(§2) To have a comparison with a standard GK, the GR-ligand-influenced gene expressions for these parameters were normalized to the gene expression after treatment with the standard GK, prednisolone. […] It is clear to one skilled in the art that the normalization could also in principle be related to any other glucocorticoid.
(§3) For gene suppression, the “prednisolone/GR ligand” quotient was derived for purposes of normalization, i.e., a lower value (<1) indicates a relatively weaker suppression by the GR ligands (higher values in the residual gene expression).
(§4) For the mRNA detection, the total RNA was isolated from the respective samples (human PBMC or human whole blood or spleen cells from mice), transcribed in the cDNA and amplified and detected below by means of Real-time TaqMan-PCR (Applied Biosystems). A relative quantification in comparison to the expression of the “house-keeping” gene HPRT was carried out. In each case, the ratio of the result for the GR ligands to the result of the vehicle control is plotted.

[2] = tested on: transrepression (TNF-α and IL-1β) and transactivation (CD163 and FKBP51); experiment: Transrepression/transactivation ratio (dissociation factor) in human PBMC cultures; conditions: PBMC cultures, 1, 2, 4, 12 and 24 hours
Description: As parameters that could [make] reference to the mechanism of the transrepression, TNF-α and IL-1β were selected. CD163 and FKBP51 are used to detect the transactivation activity.
Below, a ratio between the transrepression and transactivation parameters that are normalized to prednisolone was derived according to formula 2: [formula]
The factors for the transactivation and transrepression activity were averaged geometrically and put into a ratio with one another. […] The higher the ratio, the more dissociated the GR ligand is in comparison to prednisolone (ratio=1). [drawing]
Figure: Ratios for Visualization of the In Vitro Dissociation of the GR Ligands in Comparison to Prednisolone in PBMC Cultures (n—3) after 1, 2, 4, 12 and 24 Hours.
The ratios were calculated after the normalization of the gene expression values to prednisolone from the quotient of the geometric means of the parameters for transrepression (TNF-α and IL-1β) and for transactivation (CD163 and FKBP51). Mean values±SD.

FKBP51 [3] = experiment: In vitro mRNA expression of FKBP51 (transactivation parameter) in unstimulated human PBMC cultures; conditions: for Transactivation vs. Prednisolone FKBP51: mRNA, PBMC cultures, GR-ligand/prednisolone quotient
Description: as §1, §2, §3, §4

TNF-α = experiment: In vitro mRNA expression of TNF-α (transrepression parameter) in unstimulated human PBMC cultures; conditions: for Transrepression vs. Prednisolone TNF-α: mRNA, PBMC cultures, prednisolone/GR ligand quotient
Description: as §1, §2, §3, §4

CD163 [4] = experiment: Time-dependent CD163 mRNA expression in human whole-blood cultures
Protocol: as §4
(§5) For the parameters CD163 and FKBP51, in addition, the time-dependent influence of CR ligands on the mRNA expression in human whole-blood cultures was examined.

IL-1β = experiment: In vitro mRNA expression of IL-1β (transrepression parameter) in unstimulated human PBMC cultures; conditions: for Transrepression vs. Prednisolone IL-1β: mRNA, PBMC cultures, prednisolone/GR ligand quotient
Description: as §1, §2, §3, §4

FKBP51 [5] = experiment: Time-dependent FKBP51 mRNA expression in human whole-blood cultures
Protocol: as §4, §5

[6] = human PBMC cultures, single substance

C[C@]12C=CC(=O)C=C1CC[C@@H]1[C@@H]2[C@@H](O)C[C@@]2(C)[C@H]1CC[C@]2(O)C(=O)CO [Prednisolone, prednisolone]
induction of CD163 (in words) (CD163 [1]; [6]): induced | Transactivation vs. Prednisolone CD163 (CD163 [1]; 1 hour): 1.00 | Transactivation vs. Prednisolone CD163 (CD163 [1]; 2 hours): 1.00 | Transactivation vs. Prednisolone CD163 (CD163 [1]; 4 hours): 1.00 | Transactivation vs. Prednisolone CD163 (CD163 [1]; 12 hours): 1.00 | Transactivation vs. Prednisolone CD163 (CD163 [1]; 24 hours): 1.00 | dissociation factor (transrepression/transactivation ratio vs prednisolone) [2]: largely comparable | induction of FKBP51 (in words) (FKBP51 [3]; [6]): induced | Transactivation vs. Prednisolone FKBP51 (FKBP51 [3]; 1 hour): 1.00 | Transactivation vs. Prednisolone FKBP51 (FKBP51 [3]; 2 hours): 1.00 | Transactivation vs. Prednisolone FKBP51 (FKBP51 [3]; 4 hours): 1.00 | Transactivation vs. Prednisolone FKBP51 (FKBP51 [3]; 12 hours): 1.00 | Transactivation vs. Prednisolone FKBP51 (FKBP51 [3]; 24 hours): 1.00 | suppression of the mRNA expression of TNF-α (in words) (TNF-α; [6]): suppression | Transrepression vs. Prednisolone TNF-α (TNF-α; 1 hour): 1.00 | Transrepression vs. Prednisolone TNF-α (TNF-α; 2 hours): 1.00 | Transrepression vs. Prednisolone TNF-α (TNF-α; 4 hours): 1.00 | Transrepression vs. Prednisolone TNF-α (TNF-α; 12 hours): 1.00 | Transrepression vs. Prednisolone TNF-α (TNF-α; 24 hours): 1.00 | time-dependent influence on CD163 mRNA expression (CD163 [4]): induced the expression of these genes permanently | suppression of the mRNA expression of IL-1β (in words) (IL-1β; [6]): suppression | Transrepression vs. Prednisolone IL-1β (IL-1β; 1 hour): 1.00 | Transrepression vs. Prednisolone IL-1β (IL-1β; 2 hours): 1.00 | Transrepression vs. Prednisolone IL-1β (IL-1β; 4 hours): 1.00 | Transrepression vs. Prednisolone IL-1β (IL-1β; 12 hours): 1.00 | Transrepression vs. Prednisolone IL-1β (IL-1β; 24 hours): 1.00 | time-dependent influence on FKBP51 mRNA expression (FKBP51 [5]): induced the expression of these genes permanently

— patent US20060275800A1, “Process for characterization of the transactivation and transrepression activity of glucocorticoid receptor ligands in primary immune cells” (priority 2005, published 2006)
